Literature values, collected in PMC10855781 (International Journal of Molecular Sciences, 2024).

Tests used:
[1] = system: C26 murine colon cancer; details: ref [20]
Protocol: Table 3 In vivo tumor growth inhibition of a few relevant Dau-GnRH-III conjugates. | column: C26 ^a s.c. Balb/c [%] || In our experiments, GnRH-III was applied as a targeting peptide. […] The effect highly depended on the treatment schedule. In the first attempt, the conjugate was administered i.p. at a dose of 8.86 μmol (5 mg Dau-content/kg body weight) five times on days 7, 9, 11, 14 and 16 after tumor transplantation ...

[2] = system: HT-29 human colon cancer; details: ref [82]
Description: Table 3 In vivo tumor growth inhibition of a few relevant Dau-GnRH-III conjugates. | column: HT-29 orth. SCID [%] || Starting from these promising results, Dau conjugates with further GnRH-III derivatives using different short-chain fatty acids (on the side chains of Lys in position 4) were developed. […] The experiment finished on day 30, but the animals in the group treated with Dau had to be sacrificed on day 23. […] However, these numbers cannot be directly compared because the termination days were different during the experiment. The toxicities of the compound ...

[3] = system: human umbilical vein endothelial cells (HUVEC); parameters: key: 0: no cardiotoxicity; +: weak; ++: moderate; +++: strong cardiotoxicity; details: long-term (0–72 h) cytotoxic effect, impedimetric; ref [75]
Description: Table 2 Comparative study of cytotoxic effects and cardiotoxicity elicited by selected GnRH-based anthracycline conjugates. | column: Cardiotoxicity

[4] = system: PC-3 human prostatic adenocarcinoma; parameters: method as in PMID 36834815; details: s.c. PC-3; i.p. 10 mg Dau-content/kg every fifth day from day 9, five treatments; day 33; Dau 1 mg/kg, terminated day 26; ref [84]
Description: This 14-mer peptide (Glp-[…]NH2), first discovered in the skin of the frog Bombina bombina, is associated with the gastrin-releasing peptide (GRP) as a mammalian counterpart. The bombesin receptor family comprises neuromedin receptor B (NMB-R, or BB1), gastrin-releasing peptide receptor (GRP-R, or BB2) and bombesin receptor subtype 3 (BRS-3, or BB3). Among them, GRP-R has been the most investig ...

[5] = system: HT-29 tumor; details: ref [18]
Protocol: In our group, we synthesized conjugates based on a heptapeptide (VHLGYAT) selected by Zhang et al. and tested them on HT-29 human colon adenocarcinoma. Since sequence modification may result in different oxime-linked Dau-amino acid fragments, a cathepsin B- labile spacer was incorporated to the N-terminal of the homing peptide. From the parent compound (Dau=Aoa-LRRY-VHLGYAT-NH2), the potential positions that can be substituted were selected using Ala-scan. […] Statistical analysis was performed by Mann-Whitney test. *, ** and *** mean significant at p < 0.05, p < 0.01 and p < 0.001, respectively. Adapted with permission from ref. [18]. 2019, Elsevier. TEXT PRINTED IN THE PICTURE: (a) Dau: Tumour weight (g): 16% | (a) Parent: Tumour weight (g): 35% | (a) G/F exchange: Tumour weight (g): 11% | (b) Dau: Liver weight (g): 72% | (b) Parent: Liver weight (g): 101% | (b) G/F exchange: Liver weight (g): 90% | (c) Dau: Prol ...

[6] = system: Human cardiac myocytes (HCM); parameters: key: 0: no cardiotoxicity; +: weak; ++: moderate; +++: strong cardiotoxicity; details: long-term (0–72 h) cytotoxic effect, impedimetric; ref [75]
Description: Table 2 Comparative study of cytotoxic effects and cardiotoxicity elicited by selected GnRH-based anthracycline conjugates. | column: Cardiotoxicity || The main drug-related toxic side effect of anthracyclines is cardiotoxicity, leading to cardiomyopathy and heart failure. Comparative experiments to determine the cardiotoxicity of peptide–anthracycline conjugates with different linkages might be informative for the other conjugates with different types of drugs as well. For this purpose, human cardiomyocytes (HCM) and human umbilical vein endothelial cells (HUVEC) were used as models. The long-term (0–72 h) cytotoxic effect of sixteen GnRH-based conjugates containing Dox and Dau was determined by real-time impedimetric sensing using th ...

[7] = system: PANC-1 tumor; details: ref [110]
Protocol: The in vivo tumor growth inhibitory effect of the conjugate and free Dau was investigated on s.c.-developed PANC-1 tumor-bearing SCID female mice. The free drug was applied once a week at a maximum tolerated dose of 1 mg/kg body weight (three treatments), while the conjugate was administered, on average, three times per a week either at a 2 mg/kg or 10 mg/kg dose, calculated as per the Dau content (eighteen treatments altogether). The first treatment was given on day 10 after tumor inoculation. After the third treatment with free Dau, the animals lost 20% of their weight; therefore, the mice i ...

[8] = system: DNA; details: apparent equilibrium binding constant; ref [72]
Description: Figure 2 The equilibrium binding constants of daunomycin (Dau) and its oxime-linked amino acid derivatives to DNA. TEXT PRINTED IN THE PICTURE: Dau: K (x10^5)(M^−1): 11.7 | H-Lys(Dau=Aoa-OH): K (x10^5)(M^−1): 6.8 | Dau=Aoa-Gly-OH: K (x10^5)(M^−1): 6.74 | Dau=Aoa-Tyr-OH: K (x10^5)(M^−1): 4.4 | Dau=Aoa-Leu-OH: K (x10^5)(M^−1): 3.23

[9] = system: human breast adenocarcinoma (MCF-7); details: ref [75]
Description: Table 2 Comparative study of cytotoxic effects and cardiotoxicity elicited by selected GnRH-based anthracycline conjugates. | column: IC50 Values (μM)

[10] = system: human colorectal adenocarcinoma (HT-29); details: Table 2; ref [75]
Description: Table 2 Comparative study of cytotoxic effects and cardiotoxicity elicited by selected GnRH-based anthracycline conjugates. || Table 3 In vivo tumor growth inhibition of a few relevant Dau-GnRH-III conjugates. | column: Cytostatic Effect (IC50: μM) on HT-29 cells

COc1cccc2c1C(=O)c1c(O)c3c(c(O)c1C2=O)C[C@@](O)(C(C)=O)C[C@@H]3O[C@H]1C[C@H](N)[C@H](O)[C@H](C)O1 [Dau, daunomycin]
tumor volume inhibition ([1]; free Dau 2 mg/kg (3.55 μmol) days 7, 9, 11, 14, 16, day 26): 22.6%
median survival rate in comparison to the control group ([1]; free Dau 2 mg/kg days 7, 9, 11, 14, 16): 0.81
relative liver weight loss in comparison with the controls ([2]; Dau 1 mg/kg i.v. weekly for 7 weeks): 11%
tumor weight reduction ([2]; conjugates 17.72 μmol (10 mg Dau content)/kg s.c. x7, end day 30, Dau 1 mg/kg days 7, 13, 20, sacrificed day 23): 84.3%
reduction in tumor weight ([2]; conjugates 15 mg Dau content/kg i.v. x5 from day 5, then 7.5 mg i.p. x8, twice a week, Dau 1 mg/kg i.v. weekly for 7 weeks): 29.7%
proliferation index compared to the controls ([2]; same experiment as E44, average): 98.6%
vascularization rate compared to the controls ([2]; same experiment as E44): 112.5%
rate of changes in the liver and body weights ([2]; same experiment as E49): 70.6%
Cardiotoxicity, HUVEC [3]: +++
tumor volume inhibition [4]: without showing a significant reduction
tumor weight reduction compared to the control group ([5]; conjugates 10 mg/kg Dau content i.p. days 13, 16, 20, 23, 27, end day 30, Dau 1 mg/kg days 13 and 20, sacrificed day 23): 84%
decrease in liver weight vs controls ([5]; same experiment as E56): 28%
Cardiotoxicity, HCM [6]: +++
decrease in liver weight ([7]; Dau 1 mg/kg once a week, three treatments): 29.1%
body weight loss ([7]; after third treatment, 1 mg/kg once a week, sacrificed day 28): 20%
K, equilibrium binding constant to DNA [8]: 1.17e+06 M⁻¹
IC50 [9]: 0.4 ± 0.1 µM
IC50 [10]: 0.3 ± 0.2 µM
